How the values were obtained:
[1] = test system: bacteria in the body fluid; assay: bacteriological analyses of body fluid after embalming
Text: The results obtained according to the bronopol concentration were as follows:

bodies of the deceased = assay: embalming tests for presentation of the deceased (arterial and cavity injection); set-up: species or system human; settings: 0.6% bronopol; bodies with no particular abnormality
Experimental: For arterial injection, the following compositions were prepared and tested (these compositions are prepared for 1 liter of concentrated solution to which 5 liters of water are added):
This operation uses the method generally used for embalming procedures, namely injection and drainage, said drainage being generally performed in the region of the right heart.
Injection is carried out through the femoral, carotid or axillary arteries.
The amount of fluid injected is approximately 6 liters, but this amount may vary depending on the state of the deceased and the diagnosis made by the embalmer, for example the need for more drainage.
For cavity injection, the following compositions were prepared and tested (these compositions are prepared for 500 ml and used as they are):
This operation uses the method widely practised in embalming procedures, that is, gas and fluid tapping in the region of the thoracic and abdominal cavities, and injection of the composition according to the invention into each of the cavities so that said composition is diffused optimally throughout the cavities concerned.
Still using an identical base of glycerine, ethanol or methanol, tests were carried out using the compositions described in the examples above (compositions (1), (2), (3) and (3a) for arterial injection and compositions (4) and (5) for cavity injection).

bodies for dissection = assay: embalming of bodies for dissection (injection alone, no tapping); set-up: species or system human; settings: bronopol 1% by weight, 4 liters injected; dissections 14 and 16 days after death
Experimental: In this type of procedure, no liquid tapping or cavity injection is carried out.
1. Tests were also carried out within the faculty of medicine in the context of the preservation of bodies for dissection.
The results observed are very interesting, knowing that these tests were carried out by injection alone with no tapping.
To obtain optimum preservation of the body, a bronopol concentration of 1% by weight was used for a total injected quantity of 4 liters.
For example, the above-mentioned composition (2) was used on a subject of average build (a person who had been dead for eight days).
Before the test was performed, very marked lividities, large green abdominal marks and sunken eyes (the body had been frozen) were observed.
The product was then injected through the carotid artery in one pass (one times 3.6 liters of water and 400 ml of the above-mentioned composition (2)), for better product dilution (injection total=4 liters) (bronopol concentration=1%).
The subject was moved alternately between the cold storage room (7° C.) and the autopsy table (25° C.).

O=[N+]([O-])C(Br)(CO)CO [Bronopol, 2-bromo-2-nitropropane-1,3-diol]
Presence of bacteria in the body fluid ([1]; Bronopol concentration 0.90%): 1 out of 2 cases with bacteria | Presence of bacteria in the body fluid ([1]; Bronopol concentration ≦0.80%): 7 out of 8 cases with bacteria | Presence of bacteria in the body fluid ([1]; Bronopol concentration ≧1.2%): 1 out of 3 cases with bacteria | overall result of embalming tests (bodies of the deceased): satisfactory results | odour (bodies for dissection): lack of odour | state of preservation of the body and tissue suppleness (bodies for dissection): very good results
